Measured values reported in PubChem BioAssay (NCI).
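Tested at 5 concentrations; 48 h exposure; 96-well plates; endpoints linearly interpolated, else capped at highest concentration. GI50 = concentration required for 50% inhibition of growth. TGI is the concentration that stops growth completely.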

Experiments:
Assay in all cases: DTP human tumour cell line panel, 48 h
[1] = test system: HL-60(TB) leukemia
[2] = test system: U251 CNS
[3] = test system: MDA-MB-231 breast
[4] = test system: ACHN renal
[5] = test system: BT-549 breast
[6] = test system: COLO 205 colon
[7] = test system: UACC-257 melanoma
[8] = test system: HOP-62 NSCLC
[9] = test system: RPMI-8226 leukemia
[10] = test system: A498 renal
[11] = test system: HOP-92 NSCLC
[12] = test system: CAKI-1 renal
[13] = test system: EKVX NSCLC
[14] = test system: T-47D breast
[15] = test system: SK-MEL-28 melanoma
[16] = test system: OVCAR-4 ovarian
[17] = test system: 786-0 renal
[18] = test system: K-562 leukemia
[19] = test system: KM12 colon
[20] = test system: PC-3 prostate
[21] = test system: HCT-15 colon
[22] = test system: MCF7 breast
[23] = test system: TK-10 renal
[24] = test system: OVCAR-8 ovarian
[25] = test system: SF-268 CNS
[26] = test system: HCT-116 colon
[27] = test system: SF-295 CNS
[28] = test system: NCI-H226 lung
[29] = test system: UO-31 renal
[30] = test system: IGROV1 ovarian
[31] = test system: CCRF-CEM leukemia
[32] = test system: UACC-62 melanoma
[33] = test system: DU-145 prostate
[34] = test system: SW-620 colon
[35] = test system: MALME-3M melanoma
[36] = test system: SNB-75 CNS
[37] = test system: HCC-2998 colon
[38] = test system: LOX IMVI melanoma
[39] = test system: SNB-19 CNS
[40] = test system: SK-OV-3 ovarian
[41] = test system: SF-539 CNS
[42] = test system: NCI-H23 lung
[43] = test system: MOLT-4 leukemia
[44] = test system: SR leukemia
[45] = test system: A549 NSCLC
[46] = test system: NCI-H522 lung
[47] = test system: OVCAR-5 ovarian
[48] = test system: NCI-H460 lung
[49] = test system: MDA-MB-468 breast
[50] = test system: RXF 393 renal
[51] = test system: SK-MEL-5 melanoma
[52] = test system: SN12C renal
[53] = test system: HT29 colon
[54] = test system: OVCAR-3 ovarian

Compound `COc1cccc(C(N)=Nc2ccc(OCCCCCCn3cncn3)cc2)c1` has a GI50 [1] of 0.567 µM, a TGI [1] of 42.9 µM and a GI50 [2] of 3.61 µM. It also gave a TGI [2] greater than 100 µM, a GI50 [3] of 1.7 µM and a TGI [3] of 57.6 µM. The GI50 [4] was 4.26 µM, the TGI [4] was greater than 100 µM and the GI50 [5] was 0.957 µM. For the same compound, the TGI [5] was greater than 100 µM, the GI50 [6] was 1.75 µM and the TGI [6] was 10.3 µM. For the same compound, the GI50 [7] was 8.67 µM, the TGI [7] was greater than 100 µM and the GI50 [8] was 4.13 µM. It also gave a TGI [8] greater than 100 µM, a GI50 [9] of 2.82 µM and a TGI [9] greater than 100 µM. For the same compound, the GI50 [10] was 26.1 µM, the TGI [10] was greater than 100 µM and the GI50 [11] was 4.13 µM. It also gave a TGI [11] greater than 100 µM, a GI50 [12] of 0.909 µM and a TGI [12] greater than 100 µM. For the same compound, the GI50 [13] was 2.92 µM, the TGI [13] was greater than 100 µM and the GI50 [14] was 3.32 µM. The TGI [14] was greater than 100 µM, the GI50 [15] was 4.6 µM and the TGI [15] was greater than 100 µM. It also gave a GI50 [16] of 12.8 µM, a TGI [16] greater than 100 µM and a GI50 [17] of 0.628 µM. For the same compound, the TGI [17] was greater than 100 µM, the GI50 [18] was 0.475 µM and the TGI [18] was greater than 100 µM. For the same compound, the GI50 [19] was 1.54 µM, the TGI [19] was greater than 100 µM and the GI50 [20] was 1.86 µM. The TGI [20] was greater than 100 µM, the GI50 [21] was 2.43 µM and the TGI [21] was greater than 100 µM. For the same compound, the GI50 [22] was 0.465 µM, the TGI [22] was greater than 100 µM and the GI50 [23] was 6.48 µM. The TGI [23] was greater than 100 µM, the GI50 [24] was 3.16 µM and the TGI [24] was 28.1 µM. It also gave a GI50 [25] of 4.3 µM, a TGI [25] of 86.2 µM and a GI50 [26] of 0.439 µM. The TGI [26] was greater than 100 µM, the GI50 [27] was 1.5 µM and the TGI [27] was 30.7 µM. For the same compound, the GI50 [28] was 2.67 µM, the TGI [28] was 9.75 µM and the GI50 [29] was 4.51 µM. For the same compound, the TGI [29] was greater than 100 µM, the GI50 [30] was 3.53 µM and the TGI [30] was greater than 100 µM. For the same compound, the GI50 [31] was 1.04 µM, the TGI [31] was greater than 100 µM and the GI50 [32] was 2.06 µM. For the same compound, the TGI [32] was greater than 100 µM, the GI50 [33] was 3.05 µM and the TGI [33] was 51.6 µM. For the same compound, the GI50 [34] was 0.537 µM, the TGI [34] was greater than 100 µM and the GI50 [35] was 1.57 µM. It also gave a TGI [35] greater than 100 µM, a GI50 [36] of 1.91 µM and a TGI [36] greater than 100 µM. The GI50 [37] was 2.78 µM, the TGI [37] was greater than 100 µM and the GI50 [38] was 2.78 µM. It also gave a TGI [38] greater than 100 µM, a GI50 [39] of 4.45 µM and a TGI [39] greater than 100 µM. For the same compound, the GI50 [40] was 4.69 µM, the TGI [40] was greater than 100 µM and the GI50 [41] was 1.61 µM. It also gave a TGI [41] of 4.82 µM, a GI50 [42] of 3.44 µM and a TGI [42] greater than 100 µM. It also gave a GI50 [43] of 3.19 µM, a TGI [43] greater than 100 µM and a GI50 [44] of 0.537 µM. For the same compound, the TGI [44] was greater than 100 µM, the GI50 [45] was 2.86 µM and the TGI [45] was greater than 100 µM. It also gave a GI50 [46] of 1.08 µM, a TGI [46] of 3.96 µM and a GI50 [47] of 3.18 µM. The TGI [47] was greater than 100 µM, the GI50 [48] was 1.18 µM and the TGI [48] was 22.1 µM. The GI50 [49] was 0.429 µM, the TGI [49] was greater than 100 µM and the GI50 [50] was 2.3 µM. The TGI [50] was greater than 100 µM, the GI50 [51] was 1.47 µM and the TGI [51] was 10.2 µM. It also gave a GI50 [52] of 3.61 µM, a TGI [52] greater than 100 µM and a GI50 [53] of 1.23 µM. For the same compound, the TGI [53] was 5.07 µM, the GI50 [54] was 0.601 µM and the TGI [54] was 3.36 µM.
